Assay: previous phase 1 study, single and multiple dose cohorts
Format: in vivo, human
Conditions: doses used in this study (20, 40, 60, 80 mg QD, oral); preliminary results from 6 multiple dose cohorts (up to 100 mg) and 7 single dose cohorts (up to 125 mg)

Cc1cc(OCP(=O)(O)O)cc(C)c1Cc1ccc(O)c(Cc2ccccc2)c1 [Compound 1]
lipid plasma levels: lowering of lipid plasma levels
safety: without safety issues

Reference: US20260373174A1, “THYROID BETA-AGONIST DOSING REGIMENS FOR THE TREATMENT OF X-ALD” (Viking Therapeutics, Inc., priority 2022, published 2026)
